Reference: publication PMC6906431, “Selective small molecule PARG inhibitor causes replication fork stalling and cancer cell death” (Nature Communications, 2019)

Assays:
[1] = system: PARPi resistant SUM149PT cells; assay: PAR and gH2AX high-content imaging in PARPi-resistant cells; assay type: cell-based, human; conditions: 10 µM JA2131 2 h; 3Gy IR
Description: PARG inhibitors as potential therapeutic option for PARP1 inhibitor resistant cancers.
As PARP1 inhibitors are now widely used in the clinic but frequently resistance is emerging, we evaluated if PARG may be a therapeutic option for patients who become PARP1 inhibitor resistant. We therefore generated PARP1 inhibitor resistant SUM149PT triple negative breast cancer cell-lines through with 100 nM talazoparib for 5 constitutive days and then with 15-50 nM talazoparib until resistant cells grew into clones. The resulting resistant cell clones were propagated and expanded to generate PARP inhibitor resistant SUM149PT derivative cells that no longer responded to PARP1i treatment. We then investigated whether the PARP resistant breast cancer cells would response to the PARG inhibitors. Four PARPi resistant SUM149PT cell clones together with wild type cells were treated with JA2131. PAR accumulation and gH2AX foci formation were analyzed by high content imaging (Fig. S6). Treatment of cells with […]
immu n o fluorescence signals. The PAR accumulation and gH2AX foci formation was very similar […]
PARP1 resistant patients.
Supplementary Fig. 17: PARPi resistant cells respond to JA2131 PARGi. (a) PARGi sensitizes PARP1i resistant breast cancer cells. […]

MDA-MB-231 PARG-KD cells = assay: Sulforhodamine B (SRB) cytotoxicity assay; assay type: cell-based, human
Description: (§1) Fig. 6 Selective inhibition of PARG by xanthine derivative JA2131. a Clonogenic survival assays of PC3, MDA-MB-231, and MCF-7 cells treated with PARGi. Cells were treated with either DMSO or 10 µM JA2131 for 2 h, irradiated with 3 Gy (MDA-MB-231 and MCF-7), 7 Gy (PC3) IR and grown for ~2 weeks, then colonies were fixed with methanol and stained with crystal violet. The results of three independent experiments are shown. Error bars = the standard error of the mean (SEM). b dose-response of JA2131 in MDA-MB-231 cells with and without IR. Cells were treated with designated concentrations of JA2131 for 2 h and then either left untreated or exposed to 3 Gy IR and allowed to recover for 1 h before lysis. Total protein was immunoblotted with anti-PAR antibody (upper panel), stripped and reprobed with anti-PCNA as a loading control. c MDA-MB-231 cells with stable scrambled shRNA (WT) or stable PARG shRNA, knockdown (KD), were treated with 5 μM JA2131 for 2 h, lysed and then total lysates were immunoblotted for anti-PAR (upper panel) followed by anti-PARG (upper middle panel), anti-PARP1 (lower middle panel) and anti-actin (bottom panel) antibody. […] Stable cells with scramble shRNA (control) and shPARG (PARG-KD) cells were treated with an increasing concentration of JA2131 for growth inhibitory IC50 determination. The data was normalized against 100% survival at the lowest inhibitor concentration. Error bars show the percent coefficient of variation. Equivalent concentrations of DMSO were used as a negative control. e The cytotoxicity of JA2131 along with PDD, Veliparib and Doxorubicin against MRC-5 cells. Error bars show the percent coefficient of variation. f CETSA for in-cell JA2131 target engagement. Normalized anti-PARG western blot intensities of three independent experiments were fitted as above and the estimated aggregation temperature (Tagg) is shown in the tabulated insert. Source Data are provided as a Source Data file.

[2] = system: MDA-MB-231 control cells (scramble shRNA); assay: Sulforhodamine B (SRB) cytotoxicity assay; assay type: cell-based, human; conditions: 72 h
Description: as §1

[3] = Sulforhodamine B (SRB) cytotoxicity assay; assay type: cell-based, human; conditions: human; for viability at 72 h, 25 µM: log concentration μM 1.39794
Description: as §1

PC3 cells = assay: Sulforhodamine B (SRB) cytotoxicity assay; conditions: Homo sapiens, PC-3, 72 h
PARG in PC3 cells = molecular target: T1, PARG in PC3 cells (Homo sapiens, UniProt Q86W56); assay: Cellular thermal shift assay (CETSA); assay type: cell-based; conditions: 10 μM JA2131
T1 construct: endogenous in cells; host or cells: PC3
Description: CETSA was performed as described by Molina et al.[44]. Briefly, PC3 cells were treated with 10 μM JA2131 or an equivalent volume of DMSO for 2 h, washed three times with PBS and extracted for total cell lysate. Ten percent glycerol was added to the samples before subjecting to heat. […] Then, samples were centrifuged at 14,000 rpm for 20 min at 4 °C. Supernatants were carefully removed and analyzed by western blotting analysis.
Supplementary Fig. 14: Representative CETSA western blots for PARG and PCNA. PC3 cells
treated with 10 µM JA2131 or DMSO were temperature shocked as described in Materials and […]
PCNA antibody. Anti -Histone H3 was used as loading control.
(1 picture or pasted object on this page, not shown here)

T1 sequence (Q86W56 whole entry): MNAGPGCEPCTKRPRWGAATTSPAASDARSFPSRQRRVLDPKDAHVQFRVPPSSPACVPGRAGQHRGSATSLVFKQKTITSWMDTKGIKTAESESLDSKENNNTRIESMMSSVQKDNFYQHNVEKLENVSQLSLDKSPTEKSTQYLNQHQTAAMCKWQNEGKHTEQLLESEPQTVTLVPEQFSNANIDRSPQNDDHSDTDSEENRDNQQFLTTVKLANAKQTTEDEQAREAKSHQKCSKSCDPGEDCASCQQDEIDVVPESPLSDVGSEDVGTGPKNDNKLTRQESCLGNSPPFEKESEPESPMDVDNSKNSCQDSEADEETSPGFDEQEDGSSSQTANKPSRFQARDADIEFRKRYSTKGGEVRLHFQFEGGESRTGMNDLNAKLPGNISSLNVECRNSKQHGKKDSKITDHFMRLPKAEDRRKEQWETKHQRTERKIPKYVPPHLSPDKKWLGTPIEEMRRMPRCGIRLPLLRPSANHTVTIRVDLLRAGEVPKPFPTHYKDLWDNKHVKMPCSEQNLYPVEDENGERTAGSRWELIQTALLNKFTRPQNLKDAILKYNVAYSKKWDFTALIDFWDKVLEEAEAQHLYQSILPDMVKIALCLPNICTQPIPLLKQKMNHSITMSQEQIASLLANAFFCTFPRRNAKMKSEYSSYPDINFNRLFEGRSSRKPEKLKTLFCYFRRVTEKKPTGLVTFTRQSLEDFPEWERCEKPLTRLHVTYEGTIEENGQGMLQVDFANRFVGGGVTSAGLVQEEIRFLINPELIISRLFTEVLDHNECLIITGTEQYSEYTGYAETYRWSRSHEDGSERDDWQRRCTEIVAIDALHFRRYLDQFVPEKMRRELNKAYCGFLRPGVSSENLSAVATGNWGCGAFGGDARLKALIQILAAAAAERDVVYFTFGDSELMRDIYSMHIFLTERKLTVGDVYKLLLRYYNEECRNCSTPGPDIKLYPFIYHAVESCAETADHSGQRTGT

Cn1c(=S)c2[nH]c(SCCN3CCOCC3)nc2n(C)c1=O [JA2131]
PAR accumulation and gH2AX staining [1]: increased PAR accumulation as well as gH2AX staining
IC50 in PARG-depleted cells relative to control cells (MDA-MB-231 PARG-KD cells): ~10 fold
fraction of PARG-KD cells responding to the PARGi (MDA-MB-231 PARG-KD cells): 50%
IC50 (MDA-MB-231 PARG-KD cells; Homo sapiens, MDA-MB-231, growth inhibitory, 72 h): 34.4 ± 13.3 µM
Viability (MDA-MB-231 PARG-KD cells; log concentration μM 0.193959, 72 h): 105.597%
Viability (MDA-MB-231 PARG-KD cells; log concentration μM 0.49485, 72 h): 101.727%
Viability (MDA-MB-231 PARG-KD cells; log concentration μM 0.79588, 72 h): 99.9152%
Viability (MDA-MB-231 PARG-KD cells; log concentration μM 1.09691, 72 h): 97.9571%
Viability (MDA-MB-231 PARG-KD cells; log concentration μM 2, 72 h): 52.7893%
Viability (MDA-MB-231 PARG-KD cells; log concentration μM 2.30103, 72 h): 51.5972%
Viability (MDA-MB-231 PARG-KD cells; log concentration μM -0.10735, 72 h): 104.639%
Viability (MDA-MB-231 PARG-KD cells; log concentration μM -0.40782, 72 h): 106.229%
Viability (MDA-MB-231 PARG-KD cells; log concentration μM -0.70997, 72 h): 102.262%
Viability (MDA-MB-231 PARG-KD cells; log concentration μM -1.00877, 72 h): 100%
IC50 ([2]; Homo sapiens, MDA-MB-231, growth inhibitory): 3.89 ± 0.88 µM
Viability ([2]; log concentration μM 0.193959): 75.9862%
Viability ([2]; log concentration μM 0.49485): 65.9005%
Viability ([2]; log concentration μM 0.79588): 45.256%
Viability ([2]; log concentration μM 1.09691): 30.1241%
Viability ([2]; log concentration μM 1.69897): 14.974%
Viability ([2]; log concentration μM 2): 13.0697%
Viability ([2]; log concentration μM 2.30103): 16.4202%
Viability ([2]; log concentration μM -0.10735): 96.2538%
Viability ([2]; log concentration μM -0.40782): 101.482%
Viability ([2]; log concentration μM -0.70997): 100%
Viability ([2]; log concentration μM -1.00877): 100%
viability at 72 h, 25 µM ([3]; MDA-MB-231 cells with stable PARG shRNA knockdown (PARG-KD), 72 h): 80.4%
viability at 72 h, 50 µM ([3]; MDA-MB-231 cells with stable PARG shRNA knockdown (PARG-KD), log concentration μM 1.69897, 72 h): 70.2%
viability at 72 h, 25 µM ([3]; MDA-MB-231 control cells with stable scramble shRNA): 17%
viability at 72 h, 1.95 µM ([3]; MRC-5 cells, log [concentration] μM 0.29): 98.4%
viability at 72 h, 3.89 µM ([3]; MRC-5 cells, log [concentration] μM 0.59): 99.3%
viability at 72 h, 7.76 µM ([3]; MRC-5 cells, log [concentration] μM 0.89): 98.5%
viability at 72 h, 15.5 µM ([3]; MRC-5 cells, log [concentration] μM 1.19): 100%
viability at 72 h, 30.9 µM ([3]; MRC-5 cells, log [concentration] μM 1.49): 91.9%
viability at 72 h, 63.1 µM ([3]; MRC-5 cells, log [concentration] μM 1.8): 79.9%
viability at 72 h, 126 µM ([3]; MRC-5 cells, log [concentration] μM 2.1): 61.4%
viability at 72 h, 251 µM ([3]; MRC-5 cells, log [concentration] μM 2.4): 28.2%
viability at 72 h, 501 µM ([3]; MRC-5 cells, log [concentration] μM 2.7): 20.4%
viability at 72 h, 0.977 µM ([3]; MRC-5 cells, log [concentration] μM -0.01): 93.5%
viability at 72 h, 0.49 µM ([3]; MRC-5 cells, log [concentration] μM -0.31): 100%
viability at 72 h, 0.245 µM ([3]; MRC-5 cells, log [concentration] μM -0.61): 100%
IC50 (PC3 cells; with 7 Gy IR): 41.6 ± 3 µM
IC50 (PC3 cells; without IR): 33 ± 2.4 µM
stabilization of PARG proteins in cells (PARG in PC3 cells): 9 °C
Band intensities, anti-PARG (PARG in PC3 cells; Temperature 4 °C): 100
Band intensities, anti-PARG (PARG in PC3 cells; Temperature 51 °C): 93.0607
Band intensities, anti-PARG (PARG in PC3 cells; Temperature 62 °C): 68.3696
Band intensities, anti-PARG (PARG in PC3 cells; Temperature 68 °C): 57.8125
Band intensities, anti-PARG (PARG in PC3 cells; Temperature 72 °C): 44.7308
Band intensities, anti-PARG (PARG in PC3 cells; Temperature 77 °C): 28.3012
Band intensities, anti-PARG (PARG in PC3 cells; Temperature 85 °C): 16.0619
